Test results reported in ChEMBL document CHEMBL5365425, “Discovery of novel methionine adenosyltransferase 2A (MAT2A) allosteric inhibitors by structure-based virtual screening” (Bioorg Med Chem Lett, 2023).
In brackets after ≈: the same amount, converted by molar mass. Activity calls are given as the source filed them. The rule behind the calls is not given here.

What was measured:
[1] = biological target: T1, S-adenosylmethionine synthase isoform type-2 (Homo sapiens, UniProt P31153); assay: Inhibition of recombinant human MAT2A
[2] = test system: HCT-116; assay: Antiproliferative activity against human HCT-116 cells assessed as inhibition of cell growth by proliferation assay; format: functional, cell-based
[3] = test system: HCT-116; assay: Antiproliferative activity against MTAP-/- isogenic variant of human HCT-116 cells assessed as inhibition of cell growth by proliferation assay; format: functional, cell-based
[4] = Lipophilicity, log D of compound at pH 7.4; format: physicochemical; settings: buffer
[5] = Solubility of the compound; format: physicochemical
[6] = biological target: T2, S-adenosylmethionine synthase isoform type-1 (Homo sapiens, UniProt Q00266); assay: Inhibition of human MAT1A
[7] = biological target: T2, S-adenosylmethionine synthase isoform type-1; assay: Inhibition of recombinant human MAT1A
[8] = biological target: T1, S-adenosylmethionine synthase isoform type-2; assay: Inhibition of human MAT2A
Target sequence in this assay (P31153 whole entry, canonical isoform): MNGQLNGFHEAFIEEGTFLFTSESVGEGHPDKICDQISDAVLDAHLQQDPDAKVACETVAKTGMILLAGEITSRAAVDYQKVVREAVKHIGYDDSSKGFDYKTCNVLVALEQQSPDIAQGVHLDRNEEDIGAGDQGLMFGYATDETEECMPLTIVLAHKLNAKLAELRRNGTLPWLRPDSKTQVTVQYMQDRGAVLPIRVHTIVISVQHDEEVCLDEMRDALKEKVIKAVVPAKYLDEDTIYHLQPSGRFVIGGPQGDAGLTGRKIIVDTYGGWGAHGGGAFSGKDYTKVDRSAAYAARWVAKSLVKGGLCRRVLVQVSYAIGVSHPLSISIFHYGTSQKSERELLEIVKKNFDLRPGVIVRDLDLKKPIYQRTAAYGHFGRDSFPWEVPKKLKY

[9] = biological target: T2, S-adenosylmethionine synthase isoform type-1; assay: Activation of human MAT1A; settings: filed as activator

T2 sequence (Q00266 whole entry, canonical isoform): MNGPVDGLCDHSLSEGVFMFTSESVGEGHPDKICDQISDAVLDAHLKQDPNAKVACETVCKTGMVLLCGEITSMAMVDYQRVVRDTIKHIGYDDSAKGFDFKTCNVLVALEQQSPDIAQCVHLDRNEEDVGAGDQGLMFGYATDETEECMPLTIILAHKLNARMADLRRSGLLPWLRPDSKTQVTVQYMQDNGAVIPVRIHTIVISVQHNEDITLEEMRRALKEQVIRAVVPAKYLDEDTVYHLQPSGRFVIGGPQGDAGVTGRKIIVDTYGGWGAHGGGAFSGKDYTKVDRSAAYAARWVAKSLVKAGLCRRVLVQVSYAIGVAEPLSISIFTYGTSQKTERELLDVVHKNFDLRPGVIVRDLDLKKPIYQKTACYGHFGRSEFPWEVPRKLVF

SMILES | IC50 [1] [µM] | IC50 [2] [µM] | IC50 [3] [µM] | logD [4] | solubility [5] [µM] | IC50 [6] [µM] | inhibition [1] | inhibition [7] | IC50 [8] [µM] | Activity [9]
COc1ccc2oc3cc(C)[n+]([O-])c(-c4ccc(Cl)cc4)c3c2c1 | 0.122 | 7.93 | 3.12 | 2.8 | 14 (≈ 4.76 µg/mL) | – | – | – | – | –
COc1ccc2oc3cc(C)[n+]([O-])c(-c4ccc(C)cc4)c3c2c1 | 0.051 | 9.23 | 4.96 | 2.7 | 11 (≈ 3.51 µg/mL) | – | – | – | – | –
COc1ccc2oc3cc(C)[n+]([O-])c(-c4ccccc4)c3c2c1 | 1.31 | – | – | 2.3 | 15 (≈ 4.58 µg/mL) | – | – | – | – | –
COc1ccc(-c2c3c(cc(C)[n+]2[O-])oc2ccc(OC)cc23)cc1 | 0.145 | > 10 | 7.55 | 2.5 | 42 (≈ 14.1 µg/mL) | – | – | – | – | –
CCn1ncc2c(C(=O)Nc3ccc4ncn(C)c4c3)cc(C3CC3)nc21 | 0.205 | > 10 | 7.17 | 2.6 | 49 (≈ 17.7 µg/mL) | – | – | – | – | –
O=c1nc(N2CC[C@@H](F)C2)c2ccc(Cl)cc2n1-c1ccccc1 | – | – | – | – | – | 0.813 | Active | Active | – | –
CC(C)n1ncc2c(C(=O)Nc3ccc4ncccc4c3)cc(C3CC3)nc21 | 3.71 | > 10 | > 10 | 3.7 | 4 (≈ 1.49 µg/mL) | – | – | – | – | –
CCn1ncc2c(C(=O)N(C)c3ccc4nn(C)cc4c3)cc(C3CC3)nc21 | > 10 | – | – | 2.2 | 94 (≈ 35.2 µg/mL) | – | – | – | – | –
CCn1ncc2c(C(=O)Nc3ccc4[nH]ncc4c3)cc(C3CC3)nc21 | 0.469 | > 10 | > 10 | 2.7 | 23 (≈ 7.97 µg/mL) | – | – | – | – | –
CN(C)CCc1nnc2cc(-c3ccccc3)c3cc(Cl)ccc3n12 | – | – | – | – | – | – | Active | Active | 0.412 | Active
CC(C)n1ncc2c(C(=O)Nc3ccc4n[nH]cc4c3)cc(C3CC3)nc21 | 1.84 | > 10 | > 10 | 3.3 | 19 (≈ 6.85 µg/mL) | – | – | – | – | –
CCn1ncc2c(C(=O)Nc3ccc4ncsc4c3)cc(C3CC3)nc21 | 0.172 | > 10 | 3.86 | 3.4 | 1 (≈ 0.363 µg/mL) | – | – | – | – | –
Cn1cc2cc(-n3cc4cnc(NCC(F)(F)F)nc4c(-c4ccc(OC(F)F)cc4)c3=O)ccc2n1 | – | – | – | – | – | > 10 | Active | Active | 0.05 | –
COc1ccc(-c2c(Nc3ccccn3)[nH]c3c(C4=CCCCC4)c(-c4ccccc4)nn3c2=O)cc1 | – | – | – | – | – | – | Active | Active | – | Active
CCCCn1ncc2c(C(=O)Nc3ccc4nn(C)cc4c3)cc(C3CC3)nc21 | > 10 | – | – | 3.2 | 4 (≈ 1.55 µg/mL) | – | – | – | – | –

Results, then the compound that gave them:

IC50 [1] [µM] | IC50 [2] [µM] | IC50 [3] [µM] | logD [4] | solubility [5] [µM] | IC50 [6] [µM] | inhibition [1] | inhibition [7] | IC50 [8] [µM] | Activity [9] | SMILES
0.303 | > 10 | 9.96 | 2.6 | 47 (≈ 16.9 µg/mL) | – | – | – | – | – | CCn1ncc2c(C(=O)Nc3ccc4c(c3)ncn4C)cc(C3CC3)nc21
0.403 | > 10 | > 10 | 3.3 | 3 (≈ 1.12 µg/mL) | – | – | – | – | – | CC(C)n1ncc2c(C(=O)Nc3ccc4nn(C)cc4c3)cc(C3CC3)nc21
0.277 | > 10 | 6.41 | 3.2 | 13 (≈ 4.65 µg/mL) | – | – | – | – | – | CCn1ncc2c(C(=O)Nc3ccc4ncccc4c3)cc(C3CC3)nc21
> 10 | – | – | 3.5 | 2 (≈ 0.745 µg/mL) | – | – | – | – | – | CC(C)n1ncc2c(C(=O)Nc3ccc4nccnc4c3)cc(C3CC3)nc21
0.078 | > 10 | 1.71 | 2.8 | 2 (≈ 0.721 µg/mL) | – | – | – | – | – | CCn1ncc2c(C(=O)Nc3ccc4nn(C)cc4c3)cc(C3CC3)nc21
0.09 | > 10 | 3.19 | 2.9 | 9 (≈ 3.37 µg/mL) | – | – | – | – | – | CCn1ncc2c(C(=O)Nc3ccc4nn(C)c(C)c4c3)cc(C3CC3)nc21
0.13 | > 10 | 5.27 | 3.6 | 3 (≈ 1.01 µg/mL) | – | – | – | – | – | CCn1ncc2c(C(=O)Nc3ccc(OC)cc3)cc(C3CC3)nc21
0.068 | > 10 | 2.42 | 3.1 | 32 (≈ 12 µg/mL) | – | – | – | – | – | CCn1cc2cc(NC(=O)c3cc(C4CC4)nc4c3cnn4CC)ccc2n1
